This is an account of results in patent publication US20230142705A1, “USE OF ANTI-AGING GLYCOPEPTIDES FOR INHIBITION OF IMMUNE REJECTION OF A GRAFT” (PROTOKINETIX INC., priority 2020, published 2023).

The subject of test [1] is CD4+ T cells. The test is described as follows: Immunohistochemistry to detect CD4+ T cells in conjunctival epithelium of dry eye disease-induced mice. Particulars: bilateral topical administration of 5%; for CD4+ T cells infiltration into the conjunctival epithelium: DS-induced mice, result in words. Type of test: in vivo, mouse. The method, then: Enucleated mouse eyes with intact conjunctiva were suspended in optimal cutting temperature (OCT) compound and flash frozen in liquid nitrogen. Immunohistochemistry was performed on six-micrometer frozen sections to detect and count the number of cells in conjunctival epithelium that stained positively for CD4 (clone H129.9, 10 μg/mL; BD Biosciences® cat #553647), a biotinylated secondary antibody (BD Pharmingen® cat #559286), and NovaRED® peroxidase (Vector Laboratories® cat #SK-4800). Secondary antibody alone and anti-rat isotype (clone A110-2; BD Biosciences® cat #553992) controls were also examined. Positively stained cells were counted in the GC-rich area of the conjunctiva using image analysis software (Nikon NIS Elements® software) using a 10×objective. T-cell detection and quantification was performed on Arms 1, 2, 4, and 5 only. CD4+ T cells infiltration into the conjunctival epithelium is a primary clinical indicator of dry eye disease (DED), which is used here as a proxy to study immune cell infiltration into diseased tissue suffering from […].

Test [2] deals with photoreceptor precursor cells (PPCs). Put plainly: Survival of AAGP-pretreated photoreceptor precursor cells after subretinal transplantation into rabbits with retinal degeneration. In kind it is in vivo, Rabbit (Oryctolagus cuniculus). Particulars: PPCs pre-treated in vitro 24 hours with 4 mg/mL; 6 months post subretinal transplantation; cyclosporine-A discontinued two weeks post transplantation; qualitative visual examination of flatmounts. The method, then:
The objective of this study was to determine the effect of 24-hour pretreatment with anti-aging glycoprotein (AAGP™) at 4 mg/mL on the long-term (6 months) survival and functional activity of photoreceptor precursor cells (PPCs) following their subretinal transplantation into the eye of rabbits with retinal degeneration.
PPCs were generated in vitro from pluripotent human embryonic stem cells (hESCs) and incubated for 24 hours in media alone (control group) or media containing 4 mg/mL AAGP™ Following incubation, treated and untreated PPCs were labeled and injected into the subretinal space of the eye of immunosuppressed rabbits with induced retinal degeneration (4-5 rabbits/group). Animals were euthanized 6 month later, retinas were collected, and cell survival was determined in excised retinal flatmounts by imaging with confocal laser scanning system. The functional activity of transplanted cells was assessed by immunostaining for synaptic (Ribeye and Bassoon) and photoreceptor markers (Arrestin and Blue Opsin).
Retinal degeneration was induced on Day 1 of the study. […]

Setting [3] is: DS5 mice, conjunctival epithelium.

The structures appear in SMILES notation.

In the case of `C[C@H](NC(=O)[C@H](C)NC(=O)[C@@H](N)CCCCNC(=O)C(F)(F)C1(O)O[C@H](CO)[C@H](O)[C@H](O)[C@H]1O)C(=O)O.Cl` (stereo partly drawn) [AAGP™], in test [1] (setting [3]), the “T-Cell Density, 25% Percentile” value worked out at 0.3767; the “T-Cell Density, 75% Percentile” value turned out to be 0.7663; the “T-Cell Density, Maximum” value came out at 1.152; the “T-Cell Density, Mean” value stood at 0.5644. Also, in test [1] (setting [3]), the “T-Cell Density, Median” value is 0.4907 and the “T-Cell Density, Minimum” value is on record as 0.2307. The “CD4+ T cells infiltration into the conjunctival epithelium” value in test [1] is on record as “suppresses T-cell response”. The “CD4+ T cells infiltration into the conjunctival epithelium” value in test [1] (listed as PKX-001) is on record as “significantly reduced”. Further, the “cell survival of transplanted PPCs” value in test [2] is recorded as “substantial increase”.
